Data published in US12486253B2, “Therapeutics for the degradation of mutant BRAF” (C4 THERAPEUTICS, INC., priority 2021, dated 2025).

Assays:
ERK phosphorylation = ERK phosphorylation (pERK) in A375 cells; assay type: cell-based
[1] = system: A375 cells expressing the oncogenic NRAS^Q61K mutation; assay: Cellular growth over time of A375 cells expressing NRAS^Q61K; assay type: cell-based
[2] = system: H1666 cells endogenously expressing the class III BRAF mutation G466V; assay: Cellular growth over time in H1666 cells; assay type: cell-based; conditions: G466V
A375 cells [3] = assay: Cellular confluence of A375 cells by live cell imaging; assay type: cell-based; conditions: end of the 7-day experiment
phospho-ERK (T202/Y204) [4] = assay: HTRF phospho-ERK (T202/Y204) inhibition assay in A375 cells; assay type: cell-based; conditions: Homo sapiens, A-375, 24 hrs, mean of at least n = 3, read-out: pERK IC50
Method: (§1) A375 (harboring BRAF homozygous V600E mutation) were purchased from ATCC. DMEM Medium without phenol red and supplemented with L-glutamine was purchased from Corning (Corning, NY, USA). Advanced phospho-ERK (Thr202/Tyr204) HTRF assay kits were purchased from Cisbio (Bedford, MA, USA). Cell culture flasks and 384-well microplates were acquired from VWR (Radnor, PA, USA) or Corning (Corning, NY, USA).
(§2) Degradation of activated phospho-ERK (T202/Y204) protein was determined based on quantification of FRET signal using the Advanced phospho-ERK (T202/Y204) HTRF assay kit. Test compounds were added to the 384-well plate from a top concentration of 10 μM with 11 points, half log titration in duplicates. A375 cells were added into 384-well plates at a cell density of 8000 cells per well, respectively. The plates were kept at 37° C. with 5% CO2 for 24 hours. Cells treated in the absence of the test compound were the negative control. Positive control was set by wells containing all reagents but no cells. FRET signal was acquired on EnVision™ Multilabel Reader (PerkinElmer, Santa Clara, CA, USA).

A375 cells [5] = assay: CellTiter-Glo cell growth inhibition, A375 cells; assay type: cell-based; conditions: Homo sapiens, A-375, 72 hr, mean of at least n = 3
Method: (§3) A375 cell viability was determined based on quantification of ATP using CellTiter-Glo® 2.0 luminescent Assay kit, which signals the presence of metabolically-active cells. Briefly, test compound was added to 384-well plates at a top concentration of 10 μM with 14 points, half log titration in duplicates. A375 cells were seeded into the 384-well plates in DMEM medium containing 10% FBS at a cell density of 250 cells per well. Cells treated in the absence of the test compound were the negative control, normalized to 100% viability, and cells treated in the absence of CellTiter-Glo® 2.0 were the positive control, normalized to 0% viability. A375 cells were incubated at 37° C. with 5% CO2 for 72 hr. CellTiter-Glo reagent was then added to the cells and Luminescence was acquired on EnVision™ Multilabel Reader (PerkinElmer, Santa Clara, CA, USA).

phospho-ERK (T202/Y204) [6] = assay: HTRF phospho-ERK (T202/Y204) assay in A375-NRAS^Q61K cells; assay type: cell-based; conditions: 24 hrs, mean of at least n = 3, read-out: pERK IC50
From the text: as §1, with “A375-NRAS^Q61K cells” for “A375”, “V600E mutation and NRAS homozygous Q61K” for “V600E”
as §2, with “A375-NRAS^Q61K” for “A375”, “2000” for “8000”, “well.” for “well, respectively.”

A375-NRAS^Q61K cells = assay: CellTiter-Glo growth inhibition assay, A375-NRAS^Q61K cells; assay type: cell-based; conditions: 96 hr, mean of at least n = 3
Method: A375-NRAS^Q61K cells (harboring BRAF homozygous V600E mutation and NRAS homozygous Q61K mutation) were purchased from ATCC. DMEM Medium (without phenol red and supplemented with L-glutamine) was purchased from Corning (Corning, NY, USA). CellTiter-Glo® 2.0 Assay was purchased from Promega (Madison, WI, USA). Cell culture flasks and 384-well microplates were acquired from VWR (Radnor, PA, USA) or Corning (Corning, NY, USA).
as §3, with “A375-NRAS^Q61K cell viability” for “A375 cell viability”, “in duplicates. A375-NRAS^Q61K cells were” for “in duplicates. A375 cells were”, “CO2 for 96 hr. CellTiter-Glo” for “CO2 for 72 hr. CellTiter-Glo”

[7] = biological target: BRAF V600E, test compound and CRBN ternary complex (Homo sapiens, UniProt P15056+Q96SW2, V600E); assay: AlphaLISA ternary complex formation assay; assay type: binding; conditions: GST-BRAF V600E 16 nM, His-CRBN 64 nM
Sequence of BRAF V600E, test compound and CRBN ternary complex (P15056 whole entry V600E): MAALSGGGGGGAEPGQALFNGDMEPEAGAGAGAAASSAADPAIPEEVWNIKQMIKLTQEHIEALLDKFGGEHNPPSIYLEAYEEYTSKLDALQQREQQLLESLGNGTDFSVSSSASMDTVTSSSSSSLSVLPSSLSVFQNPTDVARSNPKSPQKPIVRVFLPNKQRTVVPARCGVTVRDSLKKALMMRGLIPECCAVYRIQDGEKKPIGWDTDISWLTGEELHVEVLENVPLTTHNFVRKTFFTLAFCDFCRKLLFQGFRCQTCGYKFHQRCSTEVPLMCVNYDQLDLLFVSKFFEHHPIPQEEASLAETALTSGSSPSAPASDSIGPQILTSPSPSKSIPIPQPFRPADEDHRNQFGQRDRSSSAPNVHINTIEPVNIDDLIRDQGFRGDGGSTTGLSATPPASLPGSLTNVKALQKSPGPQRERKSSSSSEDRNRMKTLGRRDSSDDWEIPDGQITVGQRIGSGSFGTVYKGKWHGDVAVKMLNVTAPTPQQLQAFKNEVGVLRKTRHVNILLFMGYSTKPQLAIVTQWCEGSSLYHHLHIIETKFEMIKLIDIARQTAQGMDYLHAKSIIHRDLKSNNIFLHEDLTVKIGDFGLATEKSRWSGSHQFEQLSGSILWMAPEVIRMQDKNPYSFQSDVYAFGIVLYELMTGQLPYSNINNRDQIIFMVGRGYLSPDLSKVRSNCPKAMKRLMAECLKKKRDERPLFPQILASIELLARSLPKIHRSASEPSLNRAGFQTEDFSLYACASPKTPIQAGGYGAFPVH
Sequence of BRAF V600E, test compound and CRBN ternary complex (Q96SW2 whole entry): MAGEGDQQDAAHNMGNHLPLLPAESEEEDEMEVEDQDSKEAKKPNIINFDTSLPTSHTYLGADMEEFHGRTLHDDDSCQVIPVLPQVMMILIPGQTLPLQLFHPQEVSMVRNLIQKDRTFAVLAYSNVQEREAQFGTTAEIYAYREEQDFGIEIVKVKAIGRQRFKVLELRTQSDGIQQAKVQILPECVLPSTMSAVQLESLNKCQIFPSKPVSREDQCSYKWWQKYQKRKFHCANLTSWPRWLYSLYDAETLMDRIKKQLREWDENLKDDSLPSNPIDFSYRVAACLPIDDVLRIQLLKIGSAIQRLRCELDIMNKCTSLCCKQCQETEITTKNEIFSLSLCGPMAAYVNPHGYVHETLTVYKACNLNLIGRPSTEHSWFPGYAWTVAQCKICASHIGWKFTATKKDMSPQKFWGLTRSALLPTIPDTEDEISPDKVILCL
Method: Formation of the ternary complex between BRAF V600E, test compound and CRBN was quantified using AlphaLISA® assay. GST-tagged BRAF V600E and His-tagged CRBN were labeled with a donor/acceptor AlphaLISA® pair, and complex formation was monitored via a change in the Alpha-signal. Signal from the control wells was used as a normalization control.
Characterization of the ternary complex formation between GST-BRAF V600E, Compound 157 and his-CRBN was carried out using an AlphaLISA® assay. Compounds were dispensed from serially diluted DMSO stock in low dead volume plates into gray 384-well AlphaPlates using acoustic technology to 1% of total reaction volume. Compounds were arranged vertically in rows A through P. Concentration series were horizontal: columns 1-11, and then duplicates in columns 12-22.
Excitation of the donor beads results in generation of singlet oxygen molecules. […]
A 10 μL mixture containing 16 nM of BRAF V600E and 64 nM of CRBN in 50 mM HEPES (pH 7.4), 200 mM NaCl, 1 mM TCEP, 0.05% Pluronic Acid, 0.1% BSA was added to the wells containing test compounds (columns 1-22) and the negative control wells (column 23). […] Plates were then read on an Envision plate reader with an appropriate AlphaLISA® filter set.

BRAF V600E = BRAF V600E (Homo sapiens, UniProt P15056, V600E); assay: Western blot of BRAF V600E levels in A375 cells; assay type: cell-based; set-up: host or cells: A375
Sequence of BRAF V600E (P15056 whole entry V600E): as the sequence (P15056 whole entry V600E) above

LOXL4 = assay: Global proteomics profiling, A375 cells; assay type: cell-based, human; conditions: 300 nM, 24 hours
Method: Each cell line was treated in duplicate with either DMSO or Compound 157 (final concentration 300 nM) for 24 hours in an incubator at 37° C. with 5% CO2. After the 24-hour incubation, cells were harvested, washed twice with PBS, and snap frozen in liquid nitrogen. Samples were re-suspended in lysis buffer [8 M urea, 50 mM HEPES (pH 8.5), 50 mM NaCl, 1× protease inhibitor cocktail] and lysed by sonication at 4° C. with 85% amplitude in a pulse setting with 30 seconds on and 30 seconds off for a total sonication time of 5 minutes. Lysates were centrifuged at maximum speed for 10 minutes at 4° C. and the supernatant collected, reduced for 1 hour at room temperature with 5 mM TCEP, and the cysteine residues were then alkylated with 15 mM iodoacetamide (room temperature, in dark, 30 minutes). Protein content was extracted by methanol-chloroform precipitation and subsequent ice-cold acetone washes. Protein pellets were resuspended in 8 M urea, 50 mM HEPES (pH 8.5) buffer and protein concentrations were measured by BCA assay. […]
For peptide tandem mass tag (TMT) labeling, 100 μg of peptides per sample was prepared at […] concentration in 200 mM HEPES (pH 8.5), 30% acetonitrile (ACN) and each the specific TMT reagent. […] TMT reporter ion intensities were quantified by extracting the signal-to-noise ratio for each. […]

| SMILES | ERK phosphorylation by western blot (ERK phosphorylation) | cell growth inhibition [1] | cell growth inhibition [2] | cellular confluence (A375 cells [3]) | IC50 (phospho-ERK (T202/Y204) [4]) | GI50 (A375 cells [5]) | IC50 (phospho-ERK (T202/Y204) [6]) | GI50 (A375-NRAS^Q61K cells) | Ternary complex formation (concentration dependence) [7] | BRAF V600E levels (BRAF V600E) | LOXL4 protein level change (LOXL4) |
| --- | --- | --- | --- | --- | --- | --- | --- | --- | --- | --- | --- |
| CCN(C)S(=O)(=O)Nc1ccc(F)c(Oc2ccc3ncn([C@H]4COC5(CCN(C(=O)CC6(O)CCN(c7cc8c(cc7F)c(N7CCC(=O)N(C)C7=O)nn8C)CC6)CC5)C4)c(=O)c3c2)c1C#N [Compound 157^NMe, reference compound] | not as pronounced | not inhibited | not inhibited as significantly | approximately 70% | 13.5 nM | 22.5 nM | 36.8 nM | 794 nM | no complex formation was observed | remain unchanged | – |
| CC(C)(C)c1nc(-c2cccc(NS(=O)(=O)c3c(F)cccc3F)c2F)c(-c2ccnc(N)n2)s1 [dabrafenib, reference compound] | – | – | – | – | – | – | – | – | – | – | decreased on the dabrafenib treated samples, to a lesser extent |
